Biological target: T1, GAT-1 in corrected isogenic control astrocytes (Homo sapiens, UniProt P30531)
T1 construct: endogenous in cells; host or cells: astrocytes differentiated from CRISPR-corrected isogenic control iPSCs
Test: 3H GABA uptake, corrected isogenic control iPSC derived astrocytes
Format: cell-based
Conditions: PBA 2 mM, 24 hrs
Method: Live images of human neural progenitor cells (NPCs), astrocytes and GABAergic inhibitory neurons differentiated from the human induced pluripotent stem cells (iPSCs) on the day of experiment. […] The DMSO treated corrected or patient cells was taken as 1. […] GABA flux was measured after 30 min transport at room temperature. The influx of GABA, expressed in pmol/μg protein/min, was averaged from duplicates for each condition and for each transfection. The average counting was DMSO treated condition taken as 1. In FIG. 5B, FIG. 5D and FIG. 5F, 966 stands for CI-966 (50 μM) and 711 stands for NNC-711 (35 μM) that was applied 30 min to the astrocytes transfected with the wildtype GAT-1^YFP before preincubation and removed during preincubation. In FIGS. 5B and D, ***p<0.001 vs. corrected DMSO treated. § § <0.01, § § § p<0.001 vs. patient DMSO treated. […] In FIGS. 5B-E, n=4-8 batches of cells. In FIG. 5F, n=4-5 different transfections). Unpaired t test was used for FIG. 5C and FIG. 5E. […] Values were expressed as mean±S.E.M.). […]
Briefly, cells were cultured in […] dishes for 3 days before the GABA uptake experiment in DMEM with 10% fetal bovine serum and 1% penicillin/streptomycin. […] Glacial acetic acid was added, and lysates were then determined on a liquid scintillator with QuantaSmart. […]

T1 sequence (P30531 whole entry): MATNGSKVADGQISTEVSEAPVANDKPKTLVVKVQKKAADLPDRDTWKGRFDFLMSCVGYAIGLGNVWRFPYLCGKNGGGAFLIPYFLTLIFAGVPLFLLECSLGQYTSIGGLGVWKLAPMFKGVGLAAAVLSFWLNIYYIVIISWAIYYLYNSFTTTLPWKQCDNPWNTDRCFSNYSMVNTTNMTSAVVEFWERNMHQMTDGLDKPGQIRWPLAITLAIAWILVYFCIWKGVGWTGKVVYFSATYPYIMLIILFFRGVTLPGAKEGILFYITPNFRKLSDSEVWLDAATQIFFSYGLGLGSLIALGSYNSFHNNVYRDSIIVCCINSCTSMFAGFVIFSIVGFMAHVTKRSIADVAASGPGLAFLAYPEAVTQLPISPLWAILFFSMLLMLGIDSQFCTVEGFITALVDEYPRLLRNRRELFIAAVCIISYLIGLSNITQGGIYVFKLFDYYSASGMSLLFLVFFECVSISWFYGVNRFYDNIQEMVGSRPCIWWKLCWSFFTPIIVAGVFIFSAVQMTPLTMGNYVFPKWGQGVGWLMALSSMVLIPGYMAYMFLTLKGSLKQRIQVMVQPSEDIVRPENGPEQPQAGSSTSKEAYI

GABA uptake normalized to its DMSO treated: 1.173±0.026
Structure (SMILES): O=C(O)CCCc1ccccc1 [PBA, 4-phenylbutyric acid]
